The text below walks through data of patent US20030049284A1, “Method of increasing the solubility of alphahydrocarboxilic salts, and products obtained by the method” (priority 2001, published 2003).

The structures appear in SMILES notation.

The conditions of series [1]: water at 20° C.; literature value (index Merck Ref. 1675; F.C.C. IV Ed. Page 153); cited from earlier work.
A short description of series [2]: Solubility in water (comparative data and examples). It counts as physicochemical. The conditions noted are these: in 1 liter of water at 20-25° C.

Consider `O=C([O-])[C@H](O)[C@@H](O)[C@H](O)[C@H](O)CO.O=C([O-])[C@H](O)[C@@H](O)[C@H](O)[C@H](O)CO.[Fe+2]` [Fe(II) gluconate], for which, in series [1], the solubility in water is given as 100 gr/1000 ml. For the same compound, in series [2], the “solubility, amount in 1 liter of water” value is reported as 85-100 gr.
